Structures are written as SMILES.

In one test the target is T1, LmjIPCS (inositol phosphorylceramide synthase from L. major) (Leishmania major, UniProt E9AFX2).
T1 sequence (E9AFX2 1-338): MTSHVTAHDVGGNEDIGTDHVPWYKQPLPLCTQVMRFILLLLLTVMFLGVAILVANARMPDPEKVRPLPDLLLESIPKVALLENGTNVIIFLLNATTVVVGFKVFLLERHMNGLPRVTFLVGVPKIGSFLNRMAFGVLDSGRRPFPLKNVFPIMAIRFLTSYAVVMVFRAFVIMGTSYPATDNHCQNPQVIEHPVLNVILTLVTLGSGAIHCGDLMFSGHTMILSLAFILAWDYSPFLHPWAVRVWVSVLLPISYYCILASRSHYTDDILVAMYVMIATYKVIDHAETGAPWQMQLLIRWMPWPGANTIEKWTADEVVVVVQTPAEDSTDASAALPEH
Briefly: biochemical. It counts as biochemical. Also on record: inhibition: dose or concentration left out as unconfirmed.
Conditions: not given
`CCCCC(=O)O[C@H]1CC[C@H]2[C@@H]3CCc4cc(O)ccc4[C@H]3CC[C@]12C` [ESTRADIOL VALERATE]: the “20mM inhibition LmjIPCS” value is listed as 66%.

`C[C@]12CCC3c4ccc(OS(=O)(=O)[O-])cc4CCC3C1CC[C@H]2O.[Na+]` (stereo partly shown) [ESTRADIOL-3-SULFATE, SODIUM SALT]: the “20mM inhibition LmjIPCS” value was determined as 5.4%.

Take `C[C@]12CCC3c4ccc(OC(=O)CCC(=O)O)cc4CCC3C1CCC2=O` (stereo partly shown) [ESTRONE HEMISUCCINATE]: the “20mM inhibition LmjIPCS” value is given as 12%.

With `CCN(CC)C(C)CN1c2ccccc2Sc2ccccc21` (stereo not shown) [ETHOPROPAZINE], the “20mM inhibition LmjIPCS” value is reported as 63%.

As to `CC(C)OC(=O)C(C)(C)Oc1ccc(C(=O)c2ccc(Cl)cc2)cc1` [FENOFIBRATE], the “20mM inhibition LmjIPCS” value turned out to be 58%.

As for `C[C@@H]1C[C@H]2[C@@H]3C[C@H](F)C4=CC(=O)C=C[C@]4(C)[C@@]3(F)[C@@H](O)C[C@]2(C)[C@@]1(O)C(=O)COC(=O)C(C)(C)C` [FLUMETHAZONE PIVALATE], the “20mM inhibition LmjIPCS” value is 14%.

`CC(C)=CCC[C@]1(C)C=Cc2c(O)c3c(c(CC=C(C)C)c2O1)O[C@]12C(=C[C@@H]4C[C@H]1C(C)(C)O[C@@]2(C/C=C(/C)C(=O)O)C4=O)C3=O` [GAMBOGIC ACID]: the “20mM inhibition LmjIPCS” value worked out at 58%.

Staying with this test, now noted: NINDS set screen, single concentration printed as 20mM.
For the molecule `CC12CCC3c4ccc(OCc5ccccc5)cc4CCC3C1C[C@@H](O)[C@@H]2O` (stereo partly shown) [ESTRIOL BENZYL ETHER], the “20mM inhibition LmjIPCS” value is 42%.

In the case of `O=C1NCC2(CCN(CCc3ccccc3)CC2)O1` [FENSPIRIDE], the “20mM inhibition LmjIPCS” value was found to be 47%.

Regarding `CC(=O)O[C@@H]1C[C@H]2C(C)(C)C(=O)C=C[C@]2(C)[C@H]2CC[C@@]3(C)[C@H](c4ccoc4)OC(=O)[C@H]4O[C@]43[C@@]21C` [GEDUNIN], the “20mM inhibition LmjIPCS” value is given as 48%.

Take `CN(C)c1ccc(C(=C2C=CC(=[N+](C)C)C=C2)c2ccc(N(C)C)cc2)cc1` [GENTIAN VIOLET]: the “20mM inhibition LmjIPCS” value amounted to 64%.

The same test, now with this note: NINDS set screen; read-out: inhibition LmjIPCS.
One may read the inhibition as the relative decrease from the control value, in per cent. As for `CCOc1ccc(Cc2nccc3cc(OCC)c(OCC)cc23)cc1OCC` [ETHAVERINE], the inhibition was -7%.

As for `C#C[C@]1(O)CC[C@H]2[C@@H]3CCc4cc(O)ccc4[C@H]3CC[C@@]21C` [ETHINYL ESTRADIOL], the inhibition is -11%.

With `O=C1[C@H](CC[C@H](O)c2ccc(F)cc2)[C@@H](c2ccc(O)cc2)N1c1ccc(F)cc1` [EZETIMIBE], the inhibition was 23%.

With `O=c1[nH]c(=O)n([C@H]2C[C@H](O)[C@@H](CO)O2)cc1F` [FLOXURIDINE], the inhibition was -2.28%.

In the case of `O=C(O)c1ccccc1OP(=O)(O)O` [FOSFOSAL], the inhibition is 13%.

The same test, now with this note: read-out: 20mM inhibition LmjIPCS.
Turning to `C[C@]12CC[C@@H]3c4ccc(O)cc4CC[C@H]3[C@@H]1CC[C@@H]2O` [ESTRADIOL], the inhibition at 20000 µM was -5.65%.

With `C[C@]12CC[C@@H]3c4ccc(O)cc4CC[C@H]3[C@@H]1CCC2=O` [ESTRONE], the inhibition at 20000 µM was found to be 1.15%.

As to `O=C(Cn1ccnc1[N+](=O)[O-])NCCO` [ETANIDAZOLE], the inhibition at 20000 µM amounted to 3.58%.

`CCc1cc(C(N)=S)ccn1` [ETHIONAMIDE]: the inhibition at 20000 µM was -5.39%.

For the molecule `C#C[C@]1(O)CC[C@H]2[C@@H]3CCC4=CC(=O)CC[C@]4(C)[C@H]3CC[C@@]21C` [ETHISTERONE], the inhibition at 20000 µM came to 2.43%.

With `CCC(N)C(O)c1ccc(O)c(O)c1` (stereo not shown) [ETHYLNOREPINEPHRINE], the inhibition at 20000 µM was -9%.

As for `CC(=O)OCC(CCn1cnc2cnc(N)nc21)COC(C)=O` [FAMCICLOVIR], the inhibition at 20000 µM stood at 1.36%.

Take `NC(N)=Nc1nc(CSCCC(N)=NS(N)(=O)=O)cs1` [FAMOTIDINE]: the inhibition at 20000 µM is 14%.

Consider `O=C(O)CCC(=O)c1ccc(-c2ccccc2)cc1` [FENBUFEN], for which the inhibition at 20000 µM was determined as 12%.

On to `CC(C(=O)O)c1cccc(Oc2ccccc2)c1` (stereo not shown) [FENOPROFEN], for which the inhibition at 20000 µM turned out to be 6%.

As to `CC(Cc1ccc(O)cc1)NCC(O)c1cc(O)cc(O)c1` (stereo not shown) [FENOTEROL], the inhibition at 20000 µM worked out at 15%.

Turning to `CC(=O)OCC(=O)[C@@]1(O)CC[C@H]2[C@@H]3CCC4=CC(=O)CC[C@]4(C)[C@@]3(F)[C@@H](O)C[C@@]21C` [FLUDROCORTISONE ACETATE], the inhibition at 20000 µM came out at 4.65%.

With `O=C(O)c1ccccc1Nc1cccc(C(F)(F)F)c1` [FLUFENAMIC ACID], the inhibition at 20000 µM was -16%.

Take `CC1CCc2cc(F)cc3c(=O)c(C(=O)O)cn1c23` (stereo not shown) [FLUMEQUINE]: the inhibition at 20000 µM worked out at 5%.

As to `CC1(C)O[C@@H]2C[C@H]3[C@@H]4C[C@H](F)C5=CC(=O)C=C[C@]5(C)[C@H]4[C@@H](O)C[C@]3(C)[C@]2(C(=O)CO)O1` [FLUNISOLIDE], the inhibition at 20000 µM was -10%.

Regarding `CC(=O)OCC(=O)[C@@]12OC(C)(C)O[C@@H]1C[C@H]1[C@@H]3C[C@H](F)C4=CC(=O)C=C[C@]4(C)[C@@]3(F)[C@@H](O)C[C@@]12C` [FLUOCINONIDE], the inhibition at 20000 µM stood at 6%.

`CC(=O)[C@@]1(O)CC[C@H]2[C@@H]3C[C@H](C)C4=CC(=O)C=C[C@]4(C)[C@@]3(F)[C@@H](O)C[C@@]21C` [FLUOROMETHOLONE]: the inhibition at 20000 µM stood at 3%.

Consider `CC1(C)O[C@@H]2C[C@H]3[C@@H]4C[C@H](F)C5=CC(=O)CC[C@]5(C)[C@H]4[C@@H](O)C[C@]3(C)[C@]2(C(=O)CO)O1` [FLURANDRENOLIDE], for which the inhibition at 20000 µM was -15%.

`CC(C)C(=O)Nc1ccc([N+](=O)[O-])c(C(F)(F)F)c1` [FLUTAMIDE]: the inhibition at 20000 µM is -1.8%.

For the molecule `C[C@]12CCC(=O)C(O)=C1CC[C@@H]1[C@@H]2CC[C@]2(C)C(=O)CC[C@@H]12` [FORMESTANE], the inhibition at 20000 µM stood at 18%.

With `O=C(O)c1cc2cc(Cc3cccnc3)ccc2o1` [FUREGRELATE], the inhibition at 20000 µM was -16%.

On to `NS(=O)(=O)c1cc(C(=O)O)c(NCc2ccco2)cc1Cl` [FUROSEMIDE], for which the inhibition at 20000 µM was found to be 5%.

`Oc1noc2c1CCNC2` [GABOXADOL]: the inhibition at 20000 µM is -24%.

Consider `COc1ccc2c3c1O[C@H]1C[C@@H](O)C=C[C@@]31CCN(C)C2` [GALANTHAMINE], for which the inhibition at 20000 µM turned out to be 2.62%.

In the case of `CC[N+](CC)(CC)CCOc1cccc(OCC[N+](CC)(CC)CC)c1OCC[N+](CC)(CC)CC` [GALLAMINE TRIETHIODIDE], the inhibition at 20000 µM is -1.76%.

As for `Cc1ccc(C)c(OCCCC(C)(C)C(=O)O)c1` [GEMFIBROZIL], the inhibition at 20000 µM is -1.79%.

Consider `CO/N=C1\CN(c2nc3c(cc2F)c(=O)c(C(=O)O)cn3C2CC2)CC1CN` (stereo not shown) [GEMIFLOXACIN], for which the inhibition at 20000 µM was 25%.

As for `CN[C@@H]1[C@@H](O)[C@@H](O[C@@H]2[C@@H](O)[C@H](O[C@H]3O[C@H]([C@@H](C)O)[C@@H](O)[C@H](O)[C@H]3N)[C@@H](N)C[C@H]2N)OC[C@]1(C)O` [GENETICIN], the inhibition at 20000 µM worked out at 13%.

For `O=C(OCC(O)CO)c1ccccc1Nc1ccnc2cc(Cl)ccc12` (stereo not shown) [GLAFENINE], the inhibition at 20000 µM is -16%.

`Cc1ccc(S(=O)(=O)NC(=O)NN2CC3CCCC3C2)cc1` (stereo not shown) [GLICLAZIDE]: the inhibition at 20000 µM amounted to 14%.

In the case of `O=C1O[C@H](CO)[C@@H](O)[C@H](O)[C@H]1O` [GLUCONOLACTONE], the inhibition at 20000 µM worked out at 0.589%.

Still in this test, the particulars now being: read-out: inhibition LmjIPCS.
With `C[C@]12CC[C@@H]3c4ccc(O)cc4CC[C@H]3[C@@H]1C[C@@H](O)[C@@H]2O` [ESTRIOL], the inhibition came out at 1.42%.

On to `CC[C@@H](CO)NCCN[C@@H](CC)CO` [ETHAMBUTOL], for which the inhibition was -1.19%.

Consider `CCc1cccc2c3c([nH]c12)C(CC)(CC(=O)O)OCC3` (stereo not shown) [ETODOLAC], for which the inhibition came to 13%.

As to `C=CCc1ccc(O)c(OC)c1` [EUGENOL], the inhibition turned out to be 7%.

Take `COC(=O)Nc1nc2ccc(Sc3ccccc3)cc2[nH]1` [FENBENDAZOLE]: the inhibition is 20%.

In the case of `O=c1[nH]cc(F)c(=O)[nH]1` [FLUOROURACIL], the inhibition came to 4.66%.

`CC(C(=O)O)c1ccc(-c2ccccc2)c(F)c1` (stereo not shown) [FLURBIPROFEN]: the inhibition was found to be 4%.

As to `Nc1nc(=O)c2nc(CNc3ccc(C(=O)N[C@@H](CCC(=O)O)C(=O)O)cc3)cnc2[nH]1` [FOLIC ACID], the inhibition came out at 5.56%.

Turning to `O=C(O)P(=O)(O)O` [FOSCARNET], the inhibition turned out to be 2%.

Take `C[C@@H]1O[C@@H]1P(=O)(O)O` [FOSFOMYCIN]: the inhibition was determined as 16%.

Regarding `CC(=O)O[C@H]1C[C@@]2(C)[C@@H](C[C@@H](O)[C@H]3[C@@]4(C)CC[C@@H](O)[C@@H](C)[C@@H]4CC[C@@]32C)/C1=C(\CCC=C(C)C)C(=O)O` [FUSIDIC ACID], the inhibition was determined as 5.47%.

For `CNC(C)C1CCC(N)C(OC2C(N)CC(N)C(OC3OCC(C)(O)C(NC)C3O)C2O)O1` (stereo not shown) [GENTAMICIN], the inhibition is -1%.

The test is the same for the next values; noted with them: screening of NINDS set, sheet Screen 1; read-out: inhibition LmjIPCS.
For the molecule `CC(=O)Oc1ccc2c(c1)CCC1C2CC[C@]2(C)C(=O)CCC12` (stereo partly shown) [ESTRONE ACETATE], the inhibition came to 8.56%.

In the case of `CCC1(C)CC(=O)NC1=O` (stereo not shown) [ETHOSUXIMIDE], the inhibition came out at 6%.

Take `CC1CC(OC(=O)C(O)c2ccccc2)CC(C)(C)N1C` (stereo not shown) [EUCATROPINE]: the inhibition worked out at 8%.

As for `CCCCCCOc1ccccc1C(N)=O` [EXALAMIDE], the inhibition was found to be 8%.

As to `CCC(C(N)=O)c1ccccc1` (stereo not shown) [FENBUTYRAMIDE], the inhibition was determined as 9%.

On to `O=C(COc1ccc(Cl)cc1)N1CCN(Cc2ccc3c(c2)OCO3)CC1` [FIPEXIDE], for which the inhibition is 2.64%.

Take `COc1c(N2CCNC(C)C2)c(F)cc2c(=O)c(C(=O)O)cn(C3CC3)c12` (stereo not shown) [GATIFLOXACIN]: the inhibition was determined as 2.29%.

The test is the same for the next values; noted with them: single concentration 20mM as printed; screening of NINDS set, sheet Screen 1.
For `COc1ccc2c(c1)CC[C@@H]1[C@@H]2CC[C@]2(C)[C@@H](O)[C@H](O)C[C@@H]12` [ESTRIOL METHYL ETHER], the “20mM inhibition LmjIPCS” value was found to be 8%.

Values taken from paper PMC7802075 (ACS Infectious Diseases, 2020).
